For orientation: IC50 means the midpoint of a concentration-inhibition curve.

Where two headings read alike, the source gives them in different places.

This assay concerns the target T1, FADS1 (Mus musculus, UniProt Q920L1).
T1 construct: Liver from ^13C5-DGLA dosed DIO mice was collected for pharmacodynamic (PD) analysis; from tissue; host or cells: living DIO C57Bl/6 mice; 13C5-DGLA to 13C5-AA conversion read in liver (A4) or blood plasma (A5)
T1 sequence (Q920L1 1-447): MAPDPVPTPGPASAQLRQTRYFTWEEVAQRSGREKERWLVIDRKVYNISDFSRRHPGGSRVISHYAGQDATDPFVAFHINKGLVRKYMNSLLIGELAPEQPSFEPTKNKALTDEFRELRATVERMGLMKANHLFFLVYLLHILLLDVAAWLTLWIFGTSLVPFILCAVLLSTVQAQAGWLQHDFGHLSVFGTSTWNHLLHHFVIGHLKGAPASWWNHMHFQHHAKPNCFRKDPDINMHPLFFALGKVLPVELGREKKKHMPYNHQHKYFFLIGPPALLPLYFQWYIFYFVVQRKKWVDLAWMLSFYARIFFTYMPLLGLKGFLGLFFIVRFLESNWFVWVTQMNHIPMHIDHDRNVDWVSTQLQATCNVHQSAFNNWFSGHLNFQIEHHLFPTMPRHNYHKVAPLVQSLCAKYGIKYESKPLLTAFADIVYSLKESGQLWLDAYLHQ
Description: In vivo FADS1 activity measurement using the liver (13C5-DGLA to 13C5-AA conversion). The following applies: for IC50: liver of DIO mice, unbound plasma concentration, read-out: Free (unbound) in vivo IC50. How it is done: Mice were then dosed by intraperitoneal injection with a solution comprising of a mixture of 0.1 ml solution of ^13C5-DGLA (2 mM in 18.42 mM Na2CO3 buffer). Necropsy were performed at 30 minutes post ^13C5-DGLA dosing. Liver from ^13C5-DGLA dosed DIO mice was collected for pharmacodynamic (PD) analysis and EDTA plasma was collected for compound exposure determination. For PD analysis, 150 mg of frozen liver tissue were premixed with ALA-D14 as an internal standard. Liver samples were homogenized and extracted twice with chloroform/methanol (2:1) solution. The organic phases for the two extractions were pooled and evaporated to dryness under nitrogen gas. The liver extract was resuspended in 200 μl 2N NaOH and saponified at 65° C. for 1 hour. After cooling to room temperature, 100 μl of formic acid was added and the mixture was subjected to two consecutive extractions with a chloroform:methanol (2:1) solution. The pooled organic phases were evaporated to dryness under nitrogen gas and resuspended in a solution containing acetonitrile and methanol at a ratio of 1:1. The extracts were then analyzed by LC/MS/MS for the following analytes: ^13C5-DGLA, ^13C5-AA, with ALA-d14 as the internal standard. The sample (20 μl) was injected onto a Poroshell 120 EC-C18 3.0×50 mm, 1.9 μm id column (Agilent, Santa Clara, CA). The analyte peak areas were quantified using the Analyst software (SCIEX, Framingham, […]). The residual in vivo FADS1 activity was calculated by taking the percent of substrate to product conversion normalized to the vehicle group to determine the percent of control (POC) and the percent inhibition relative to control (vehicle).
To determine the degree of FADS1 inhibition, the in vivo FADS1 activity as the percent of conversion calculated using the following equation: […]
The data were then normalized to the vehicle group to determine the percent of inhibition relative to control (vehicle) by the following equation: […]
To calculate the in vivo potency, dose response graphs were generated by plotting the plasma concentration of the test compound determined from the PK analysis on the abscissa, against the percent of control (POC, relative to vehicle) of the FADS1 activity for each mouse. The data points were then fitted by using the log(inhibitor) vs response nonlinear regression algorithm using GraphPad Prism (version 8.4.3, San Diego CA) to calculate the in vivo IC50 (total).
Free (unbound) IC50 and IC90 values were calculated by first calculating the unbound compound concentration in the plasma by multiplying the plasma concentration of test compound with the fraction unbound (fu) value in mouse plasma determined in the plasma protein binding study. A dose response curve was used to determine the unbound IC50 and IC90 by plotting the unbound plasma concentration of the compound on the abscissa, against the percent of control (POC, relative to vehicle) of FADS1 activity for each mouse. The data points were then fitted with a log (inhibitor) versus response nonlinear regression algorithm using GraphPad Prism (version 8.4.3, San Diego, CA) to calculate the in vivo IC50 (Free).

Where [1] appears, read: DIO mice, single oral dose 10 mg/kg, 24 hours after dosing.
[2] abbreviates: DIO mice, single oral dose 30 mg/kg, 24 hours after dosing.
Where [3] appears, read: mouse, DIO mice, single oral dose 10 mg/kg, 24 hours after dosing, read-out: Liver Avg % Inhibition.
Where [4] appears, read: mouse, DIO mice, single oral dose 30 mg/kg, 24 hours after dosing, read-out: Liver Avg % Inhibition.

In the case of `COc1ccn2c(=O)c(-c3cnn(CC(F)(F)C(F)(F)F)c3)c(C(F)(F)F)nc2c1` [Compound A, 8-methoxy-3-(1-(2,2,3,3,3-pentafluoropropyl)-1H-pyrazol-4-yl)-2-(trifluoromethyl)-4H-pyrido[1,2-a]pyrimidin-4-one], the IC50 was found to be 2 nM. Further, for the setting “mouse, DIO mice, 10 mg/kg daily oral, after 54 days of treatment, read-out: FADS1 activity inhibited (residual liver FADS1 activity)”, the inhibition at 10 mg/kg is 90%. The inhibition at 30 mg/kg (mouse, DIO mice, 30 mg/kg daily oral, after 54 days of treatment, read-out: FADS1 activity inhibited (residual liver FADS1 activity)) was found to be 93.6%.
With `COc1ccn2c(=O)c(-c3cnn(CC(F)(F)C(F)(F)F)c3)c(C(F)(F)F)nc2n1` [Compound B], the half-maximal inhibitory concentration (IC50) stood at 4 nM. Also, under setting [1], the “Liver Avg % Conversion” value amounted to 2.2%. For the same molecule, under setting [2], the “Liver Avg % Conversion” value came to 1.5%. Further, the “Liver Avg % Conversion” value (DIO mice, single oral dose 50 mg/kg, 24 hours after dosing) is listed as 1.4%. In addition, the inhibition at 10 mg/kg under setting [3] is 97.4%. The inhibition at 30 mg/kg under setting [4] was found to be 98.2%. Moreover, the inhibition at 50 mg/kg (mouse, DIO mice, single oral dose 50 mg/kg, 24 hours after dosing) was determined as 98.3%.
Consider `N#Cc1ccn2c(=O)c(-c3cnn(CC(F)(F)C(F)(F)F)c3)c(C(F)(F)F)nc2c1` [Compound C], for which the IC50 is 4 nM. Also, the “Liver Avg % Conversion” value (DIO mice, single oral dose 3 mg/kg, 24 hours after dosing) is 14.2%. Further, the “Liver Avg % Conversion” value under setting [1] turned out to be 4.3%. The “Liver Avg % Conversion” value under setting [2] was 1.5%. In addition, for the setting “mouse, DIO mice, single oral dose 3 mg/kg, 24 hours after dosing”, the inhibition at 3 mg/kg is 83%. For the same molecule, the inhibition at 10 mg/kg under setting [3] is 94.8%. Under setting [4], the inhibition at 30 mg/kg came out at 98.2%.
